Laboratory results reported in US4177350A, “Imidazole ethyl oxyalkoxy derivatives and thio analogues thereof” (Siegfried Aktiengesellschaft, priority 1977, dated 1979).
In brackets after ≈: the same amount, converted by molar mass.

Legend:
[1] = tested on: Trichophyton mentagrophytes; test: minimum inhibitory concentration, gradient plate method, Trichophyton mentagrophytes; assay type: cell-based; conditions: 72 h, gradient 0-100 μg/ml, 10% aqueous dimethyl formamide, evaluated three days after inoculation, read-out: Minimum Inhibitory Concentration, Fungi, Tri
Source text: (§1) Test evaluation was made three days after inoculation.

Streptococcus faecalis = test: minimum inhibitory concentration, gradient plate method, Streptococcus faecalis; assay type: cell-based; set-up: key to partial resistancy, Bacteria, Str: partial resistancy observed; conditions: for MIC: Enterococcus faecalis, 72 h, gradient 0-100 μg/ml, 10% aqueous dimethyl formamide, evaluated three days after inoculation, read-out: Minimum Inhibitory Concentration, Bacteria, Str
Source text: as §1

[2] = tested on: Staphylococcus aureus haemolyticus; test: minimum inhibitory concentration, gradient plate method, Staphylococcus aureus haemolyticus; assay type: cell-based; set-up: key to partial resistancy, Bacteria, St: partial resistancy observed; conditions: for MIC: 72 h, gradient 0-100 μg/ml, 10% aqueous dimethyl formamide, evaluated three days after inoculation, read-out: Minimum Inhibitory Concentration, Bacteria, St
Source text: as §1

Aspergillus niger = test: minimum inhibitory concentration, gradient plate method, Aspergillus niger; assay type: cell-based; set-up: key to partial resistancy, Fungi, Asp: partial resistancy observed; conditions: for MIC: 72 h, gradient 0-100 μg/ml, 10% aqueous dimethyl formamide, evaluated three days after inoculation, read-out: Minimum Inhibitory Concentration, Fungi, Asp
Source text: as §1

mice = conditions: oral, value as reported by Thienpont et al, Arzneimittelforschung 1975, 25, 224; cited from earlier work
in vivo = conditions: mouse, po
Source text: (§2) The results of these tests are summarized in the following Table I together with the oral toxicity values (LD50 per os; mice, values in mg per kg of body weight) determined in the conventional manner.

[3] = oral toxicity LD50 per os, mice; conditions: mouse, in vivo
Source text: as §2

SMILES	MIC [1]	MIC (Streptococcus faecalis)	MIC [2]	MIC (Aspergillus niger)	Toxicity LD50 per os (mice)	LD50 (in vivo)	partial resistancy, Fungi, Asp (Aspergillus niger)	partial resistancy, Bacteria, St [2]	LD50 [3]	partial resistancy, Bacteria, Str (Streptococcus faecalis)
Clc1ccc(COC(Cn2ccnc2)c2ccc(Cl)cc2Cl)cc1 (stereo not drawn) [ECONAZOLE, reference compound]	< 10 µg/mL	< 10 µg/mL	< 10 µg/mL	< 10 µg/mL	462.7 mg/kg					
CC(C(OCSc1ccc(Cl)cc1)c1ccc(Cl)cc1Cl)n1ccnc1 (stereo not drawn) [Example 25, 1-[β-(p-chlorophenylthiomethoxy)-2,4-dichlorophenethyl-α-methyl]-imidazole nitrate]	< 10 µg/mL	< 10 µg/mL	< 10 µg/mL			> 10000 mg/kg	r			
Clc1ccc(SCOC(Cn2ccnc2)c2ccc(Cl)cc2Cl)nc1 (stereo not drawn) [Example 26, 1-β[(5'-chloropyridyl-2'-thiomethoxy)-2,4-dichlorophenethyl)]-imidazole nitrate]	< 10 µg/mL	20 µg/mL	10 µg/mL	< 10 µg/mL		~2700 mg/kg				
Clc1ccc(C(Cn2ccnc2)OCCOc2ccccc2)c(Cl)c1 (stereo not drawn) [Example 27, 1-β-(phenoxyethoxy-2,4-dichlorophenethyl)-imidazole nitrate]	< 10 µg/mL	30 µg/mL		< 10 µg/mL		~800 mg/kg		r		
Clc1ccc(OCCOC(Cn2ccnc2)c2ccc(Cl)cc2Cl)cc1 (stereo not drawn) [Example 28, 1-[β-(p-chlorophenoxyethoxy)-2,4-dichlorophenethyl)]-imidazole nitrate]	< 10 µg/mL	10 µg/mL	< 10 µg/mL	< 10 µg/mL		> 3000 mg/kg				
Clc1ccc(OCCCOC(Cn2ccnc2)c2ccc(Cl)cc2Cl)cc1 (stereo not drawn) [Example 30, 1-{β-[3-(p-chlorophenoxy)-propoxy-2,4-dichlorophenethyl]}-imidazole nitrate]	< 10 µg/mL	< 10 µg/mL	< 10 µg/mL	< 10 µg/mL		> 4000 mg/kg				
Clc1ccc(SCCCOC(Cn2ccnc2)c2ccc(Cl)cc2Cl)cc1.O=[N+]([O-])O (stereo not drawn) [Example 31, 1-{β-[3-(p-chlorophenylthio)-propoxy]-2,4-dichlorophenethyl}-imidazole nitrate]	< 10 µg/mL	< 10 µg/mL	< 10 µg/mL	< 10 µg/mL					4300 mg/kg	
Clc1ccc(C(Cn2ccnc2)SCCCOc2ccccc2)c(Cl)c1 (stereo not drawn) [Example 32, 1-[β-(phenoxypropylthio)-2,4-dichlorophenethyl]-imidazole]	< 10 µg/mL		< 10 µg/mL	< 10 µg/mL		> 2000 mg/kg				r
Clc1ccc(OCCCSC(Cn2ccnc2)c2ccc(Cl)cc2Cl)cc1 (stereo not drawn) [Example 33, 1-{β-[3-(p-chlorophenoxy)-propylthio-2,4-dichlorophenethyl]}-imidazole]	< 10 µg/mL	10 µg/mL (≈ 22.6 µM)	< 10 µg/mL	25 µg/mL (≈ 56.6 µM)		> 1000 mg/kg				
Clc1ccc(SCCCSC(Cn2ccnc2)c2ccc(Cl)cc2Cl)cc1 (stereo not drawn) [Example 34, 1-{β-[3-(p-chlorophenylthiopropylthio)]-2,4-dichlorophenethyl}-imidazole nitrate]	< 10 µg/mL		10 µg/mL			> 3000 mg/kg	r			r
Clc1ccc(OCCCCOC(Cn2ccnc2)c2ccc(Cl)cc2Cl)cc1.O=[N+]([O-])O (stereo not drawn) [Example 35, 1-{β-[4-(p-chlorophenoxy)-butoxy]-2,4-dichlorophenethyl}-imidazole nitrate]	< 10 µg/mL		10 µg/mL	< 10 µg/mL					> 4000 mg/kg	r
Clc1ccc(SCCCCOC(Cn2ccnc2)c2ccc(Cl)cc2Cl)cc1 (stereo not drawn) [Example 36, 1-{β-[4-(p-chlorophenylthio)-butoxy]-2,4-dichlorophenethyl}-imidazolenitrate]	< 10 µg/mL		< 10 µg/mL	35 µg/mL (≈ 76.8 µM)		> 3000 mg/kg				r
